Results as given in the NIST ThermoML archive (doi:10.1021/acs.jced.6b00280).
Numbers after ± are expanded uncertainties.

What was measured:
[1] = for mass density: 298.15 K, 101.33 kPa, Pycnometric method
[2] = refractive index (Na D-line) (dimensionless); settings: 298.15 K; 101.33 kPa; Liquid; Standard Abbe refractometry

mass density ([1]; Crystal) [kg/m3] | Normal melting temperature ([1]; Crystal, visual observation) [°C] | Structure (SMILES) | mass density ([1]; Liquid) [kg/m3] | refractive index [2]
1346 ± 2 | 106.10 ± 1.6 | Oc1ccccc1O [1,2-benzenediol] | – | –
– | – | CCCCOC(C)=O [butyl ethanoate] | 873.1 ± 2 | 1.393 ± 0.0004
– | – | CO [methanol] | 786.1 ± 2 | 1.3264 ± 0.0004
